Earlier results on two compounds are cited in patent US12290525B2, “5 alpha dihydrotestosterone formulations and associated methods of use and treatment” (priority 2022, dated 2025).

In data set [1] the test system is GABAA receptor.
The target of data set [2] is estrogen receptor (ER) subtype ERβ (Homo sapiens, UniProt Q92731).

Each structure is given as a SMILES string.

Sequence of estrogen receptor (ER) subtype ERβ (Q92731 whole entry): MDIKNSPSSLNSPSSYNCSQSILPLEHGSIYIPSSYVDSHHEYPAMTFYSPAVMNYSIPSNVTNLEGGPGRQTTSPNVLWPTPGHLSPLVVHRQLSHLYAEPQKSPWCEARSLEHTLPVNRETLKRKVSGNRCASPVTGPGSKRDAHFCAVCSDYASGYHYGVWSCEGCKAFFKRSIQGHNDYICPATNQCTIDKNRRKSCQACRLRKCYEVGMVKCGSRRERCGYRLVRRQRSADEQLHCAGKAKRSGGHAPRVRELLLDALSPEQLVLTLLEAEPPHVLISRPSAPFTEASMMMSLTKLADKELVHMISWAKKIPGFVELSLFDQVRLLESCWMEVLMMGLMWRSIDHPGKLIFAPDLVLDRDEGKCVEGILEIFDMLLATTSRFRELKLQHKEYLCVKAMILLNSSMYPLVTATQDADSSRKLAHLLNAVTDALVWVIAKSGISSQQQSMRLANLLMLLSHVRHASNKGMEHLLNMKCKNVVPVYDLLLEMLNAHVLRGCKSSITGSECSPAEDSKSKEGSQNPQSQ

With `C[C@]12CC[C@@H](O)C[C@@H]1CC[C@@H]1[C@@H]2CC[C@]2(C)[C@@H](O)CC[C@@H]12` [3α-Androstanediol, 3α-androstanediol], the “activity at the GABAA receptor” value in data set [1] is recorded as “potent positive allosteric modulator”. As for `C[C@]12CC[C@H](O)C[C@@H]1CC[C@@H]1[C@@H]2CC[C@]2(C)[C@@H](O)CC[C@@H]12` [3β-androstanediol], the “activity at ERβ” value in data set [2] is “potent and selective agonist”.
